Experiments:
Format in all cases: in vivo
mice [1] = test: Effects on the weight of immune organs; settings: mice n = 15, 7 days; Bu-Nao-Gao 4 g/Kg orally, hydrocortisone 50 mg/Kg intramuscularly
Experimental: Mice were randomly distributed, and were given Bu-Nao-Gao (4 g/Kg) orally, or hydrocortison (50 mg/Kg) or saline intramuscularly, for seven days. 24 hours after the last administration, mice were sacrificed.

mice [2] = test: Effects on antibody production in mice (sheep erythrocyte immunization); settings: mice n = 15, immunized with 10% sheep erythrocytes day 2, measured day 8; Bu-Nao-Gao 4 g/Kg orally, hydrocortisone 50 mg/Kg i.m., 7 days
Experimental: Mice were randomly distributed, and were given Bu-Nao-Gao (4 g/Kg) orally, or hydrocortison (50 mg/Kg) or saline intramuscularly, for seven days. On day 2, they were immunized with 10% sheep erythrocytes intra-peritoneally. On day 8, erythrocyte agglutination as well as cell lysis were measured respectively.

mice [3] = settings: mice n = 15; Bu-Nao-Gao oral 4 g/Kg daily, cyclophosphomide 0.03 g/kg i.m. every other day
Experimental: Mice were given Bu-Nao-Gao (oral at 4 g/Kg daily), or cyclophosphomide (0.03 g/kg, intramuscularly every other day) or saline (oral, daily). On day 3, mice were given 0.02 ml of 7% DNCB subcutaneously on the back, and were boosted three days later in the same way. 9 days later, 0.02 ml of 1% DNCB was applied to the left ear. This area was removed by a ear puncher of 9 mm diameter and the extent of ear swelling represents the extent of delayed-type hypersensitivity (for results, see Table 6).

SMILES | Index of immune organ (mg/g X +/− SD), Spleen (mice [1]) | Index of immune organ (mg/g X +/− SD), thymus (mice [1]) | Agglutinin (33) (HC50) (mice [2]) | Erythorcytolysin (32) (mice [2]) | DNCB (extent of swolleness) (mice [3])
C[C@]12CCC(=O)C=C1CC[C@@H]1[C@@H]2[C@@H](O)C[C@@]2(C)[C@H]1CC[C@]2(O)C(=O)CO [Hydrocortisone] | 2.66 ± 0.40 mg/g | 1.37 ± 0.26 mg/g | 126.7 +/− 19.3 | 37.5 +/− 4.2 | –
O=P1(N(CCCl)CCCl)NCCCO1 (centres unmarked) [cyclo-phosphamidum, cyclophosphomide] | – | – | – | – | 12.26 +/− 8.8
